{
  "source": "patent US20240270768A1",
  "about": "“A METHOD FOR OBTAINING L-GLUFOSINATE” (UPL LIMITED, priority 2021, published 2024)",
  "key": {"[1]": {"experiment": "Storage stability of L-glufosinate quinine tetrahydrate salt under standard conditions, analysed by HPLC", "format": "physicochemical", "experimental": "HPLC method: • A) Column—Zorbax SB-C8 (250×4.6 mm i.d., 5 micron) • B) Mobile Phase—0.1% OPA: Acetonitrile (v/v) 40:60 • C) Flow—1.0 ml/min. • D) UV-Wavelength—230 nm • E) Injection volume—5 μl • F) Column temperature 40 °C • G) Run time—10 min\nL-glufosinate quinine tetrahydrate salt obtained in example 1 was stored under standard conditions (i.e. room temperature, normal pressure, air atmosphere) for 431 days."}, "[2]": {"conditions": "versus other L-glufosinate quinine hydrates (dihydrate, hexahydrate, dodecahydrate)"}},
  "data": [
    {"smiles": "C=C[C@H]1CN2CC[C@H]1C[C@H]2[C@H](O)c1ccnc2ccc(OC)cc12.CP(=O)(O)CC[C@H](N)C(=O)O.O.O.O.O", "note": "[L-glufosinate quinine tetrahydrate salt]", "values": [
      {"measurement": "Duration of desirable stability on storage", "setting": "[1]; ambient conditions and air atmosphere", "result": "more than 430 days"},
      {"measurement": "Moisture content after storage", "setting": "[1]; stored 431 days at room temperature, normal pressure, air atmosphere, initial value 12.04% (Example 1)", "result": 12.39, "unit": "%"},
      {"measurement": "Loss on drying after storage", "setting": "[1]; stored 431 days at room temperature, normal pressure, air atmosphere, initial value 12.32% (Example 1)", "result": 12.27, "unit": "%"},
      {"measurement": "L-glufosinate acid content (by HPLC) after storage", "setting": "[1]; stored 431 days at room temperature, normal pressure, air atmosphere, initial value 32.70% (Example 1)", "result": 33.13, "unit": "%"},
      {"measurement": "Quinine content (by HPLC) after storage", "setting": "[1]; stored 431 days at room temperature, normal pressure, air atmosphere, initial value 54.34% (Example 1)", "result": 53.14, "unit": "%"},
      {"measurement": "Storage stability, thermal stability and hygroscopicity compared to other hydrates", "setting": "[2]", "result": "improved storage stability, thermal stability and non-hygroscopicity as compared to other hydrates"}
    ]}
  ]
}
